Experimental data from patent US9695155B2, “Herbicidal substituted pyrimidinyloxy benzene compounds” (E. I. DU PONT DE NEMOURS AND COMPANY, priority 2013, dated 2017).

Experiments:
corn [1] = assay: Test A preemergence; type: in vivo, Zea mays
Summary of the method: (§1)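 Pre- and postemergence greenhouse screen. Soil: loam + sand. Spray carrier: solvent mixture, non-phytotoxic, with surfactant. Post timing at 1–2 leaves, height 2–10 cm. Readout: visual injury on a 0–100 scale roughly 10 days after application, untreated plants as reference.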

barnyardgrass [2] = assay: Test A postemergence; type: in vivo, Echinochloa crus-galli
Summary of the method: as §1

corn [3] = assay: Test C postemergence; type: in vivo, Zea mays; settings: for Plant response rating (0 to 100), Corn: postemergence; for Plant response rating, Corn: Postemergence, scale 0 to 100 (0 no effect, 100 complete control)
Summary of the method: (§2)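 Greenhouse herbicide screen. Pre: seeded loam/sand, sprayed at planting. Post: 1–4 leaf plants (2–18 cm) in peat-based mix. Formulation: solvent mixture + surfactant, non-phytotoxic. Readout: visual % control vs untreated, 13–15 d; dash = not tested.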

barnyardgrass [4] = assay: Test B flooded paddy test; type: in vivo, Echinochloa crus-galli; settings: Flood, 250 g ai/ha; 0 to 100 scale where 0 is no effect and 100 is complete control
Summary of the method: (§3)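 Visual ratings on a 0 to 100 scale, where 100 means complete control, compared treated plants with controls after 13 to 15 days in a greenhouse. Treatment went into paddy water 3 cm deep over the soil, applied to plants at the 2-leaf stage.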

Heteranthera limosa = assay: Test B flooded paddy test; type: in vivo; settings: Flood, 250 g ai/ha; 0 to 100 scale where 0 is no effect and 100 is complete control
Summary of the method: as §3

morningglory [5] = assay: Test A preemergence; type: in vivo, Ipomoea spp.
Summary of the method: as §1

velvetleaf = assay: Test A preemergence; type: in vivo, Abutilon theophrasti
Summary of the method: as §1

giant foxtail = assay: Test C postemergence; type: in vivo, Setaria faberii; settings: for Plant response rating (0 to 100), Foxtail, Giant: postemergence; for Plant response rating, Foxtail, Giant: Postemergence, scale 0 to 100 (0 no effect, 100 complete control)
Summary of the method: as §2

soybean = assay: Test C postemergence; type: in vivo, Glycine max; settings: for Plant response rating (0 to 100), Soybean: postemergence
Summary of the method: as §2

wheat = assay: Test A postemergence; type: in vivo, Triticum aestivum; settings: 0 to 100 scale where 0 is no effect and 100 is complete control
Summary of the method: as §1

sedge, umbrella = assay: Test B flooded paddy test; type: in vivo, Cyperus difformis; settings: Flood, 250 g ai/ha; 0 to 100 scale where 0 is no effect and 100 is complete control
Summary of the method: as §3

wheat, winter = assay: Test C postemergence; type: in vivo, Triticum aestivum; settings: for Plant response rating (0 to 100), Wheat: postemergence; for Plant response rating, Wheat: Postemergence, scale 0 to 100 (0 no effect, 100 complete control)
Summary of the method: as §2

morningglory [6] = assay: Test C postemergence; type: in vivo, Ipomoea coccinea; settings: for Plant response rating (0 to 100), Morningglory: postemergence; for Plant response rating, Morningglory: Postemergence, scale 0 to 100 (0 no effect, 100 complete control)
Summary of the method: as §2

large (Lg) crabgrass = assay: Test A preemergence; type: in vivo, Digitaria sanguinalis
Summary of the method: as §1

yellow nutsedge = assay: Test C postemergence; type: in vivo, Cyperus esculentus; settings: for Plant response rating (0 to 100), Nutsedge, Yellow: postemergence; for Plant response rating, Nutsedge, Yellow: Postemergence, scale 0 to 100 (0 no effect, 100 complete control)
Summary of the method: as §2

rice = assay: Test B flooded paddy test; type: in vivo, Oryza sativa; settings: Flood, 250 g ai/ha; 0 to 100 scale where 0 is no effect and 100 is complete control
Summary of the method: as §3

ragweed = assay: Test C postemergence; type: in vivo, Ambrosia elatior; settings: for Plant response rating (0 to 100), Ragweed: postemergence; for Plant response rating, Ragweed: Postemergence, scale 0 to 100 (0 no effect, 100 complete control)
Summary of the method: as §2

[7] = 125 g ai/ha, 0 to 100 scale where 0 is no effect and 100 is complete control
[8] = 500 g ai/ha, 0 to 100 scale, 0 no effect, 100 complete control, approx. 10 days

N#Cc1cccc(Oc2ncc(Cl)cn2)c1-n1cc(Cl)cn1 [Compound 72]
Plant response rating, Corn (corn [1]; [7]): 30
Corn plant response rating (corn [1]; [8]): 50
Plant response rating, Barnyardgrass (barnyardgrass [2]; [7]): 90
Plant response rating, Barnyardgrass (barnyardgrass [2]; 500 g ai/ha, 0 to 100 scale, 0 no effect, 100 complete control): 100
Plant response rating (0 to 100), Corn (corn [3]; 125 g ai/ha): 15
Plant response rating (0 to 100), Corn (corn [3]; 250 g ai/ha): 20
Plant response rating, Corn (corn [3]; 31 g ai/ha, 13 to 15 days): 5
Plant response rating, Corn (corn [3]; 62 g ai/ha): 10
Plant response rating, Barnyardgrass (barnyardgrass [4]): 0
Plant response rating, Ducksalad (Heteranthera limosa): 75
Plant response rating, Morningglory (morningglory [5]; [7]): 80
Morningglory plant response rating (morningglory [5]; [8]): 100
Plant response rating, Velvetleaf (velvetleaf; [7]): 90
Velvetleaf plant response rating (velvetleaf; [8]): 100
Plant response rating (0 to 100), Foxtail, Giant (giant foxtail; 125 g ai/ha): 10
Plant response rating (0 to 100), Foxtail, Giant (giant foxtail; 250 g ai/ha): 65
Plant response rating, Foxtail, Giant (giant foxtail; 31 g ai/ha, 13 to 15 days): 10
Plant response rating, Foxtail, Giant (giant foxtail; 62 g ai/ha): 10
Plant response rating (0 to 100), Soybean (soybean; 125 g ai/ha): 90
Plant response rating (0 to 100), Soybean (soybean; 250 g ai/ha): 95
Plant response rating, Soybean (soybean; Postemergence, 62 g ai/ha, scale 0 to 100 (0 no effect, 100 complete control)): 80
Plant response rating, Wheat (wheat; 125 g ai/ha): 20
Plant response rating, Wheat (wheat; 500 g ai/ha): 50
Plant response rating, Sedge, Umbrella (sedge, umbrella): 85
Plant response rating (0 to 100), Wheat (wheat, winter; 125 g ai/ha): 0
Plant response rating (0 to 100), Wheat (wheat, winter; 250 g ai/ha): 5
Plant response rating, Wheat (wheat, winter; 31 g ai/ha, 13 to 15 days): 0
Plant response rating, Wheat (wheat, winter; 62 g ai/ha): 0
Plant response rating (0 to 100), Morningglory (morningglory [6]; 125 g ai/ha): 85
Plant response rating (0 to 100), Morningglory (morningglory [6]; 250 g ai/ha): 90
Plant response rating, Morningglory (morningglory [6]; 31 g ai/ha, 13 to 15 days): 75
Plant response rating, Morningglory (morningglory [6]; 62 g ai/ha): 75
Plant response rating, Crabgrass, Large (large (Lg) crabgrass; [7]): 100
Crabgrass, Large plant response rating (large (Lg) crabgrass; [8]): 100
Plant response rating (0 to 100), Nutsedge, Yellow (yellow nutsedge; 125 g ai/ha): 0
Plant response rating (0 to 100), Nutsedge, Yellow (yellow nutsedge; 250 g ai/ha): 10
Plant response rating, Nutsedge, Yellow (yellow nutsedge; 31 g ai/ha, 13 to 15 days): 0
Plant response rating, Nutsedge, Yellow (yellow nutsedge; 62 g ai/ha): 0
Plant response rating, Rice (rice): 0
Plant response rating (0 to 100), Ragweed (ragweed; 125 g ai/ha): 60
Plant response rating (0 to 100), Ragweed (ragweed; 250 g ai/ha): 60
Plant response rating, Ragweed (ragweed; 31 g ai/ha, 13 to 15 days): 40
Plant response rating, Ragweed (ragweed; 62 g ai/ha): 40
